This data set concerns A549 cells (human lung cancer). Description: Inhibition of TNF alpha cytotoxicity (LDH release into culture supernatant). The data set is classed as cell-based. The settings on record: ingredient at 1 ug/ml, FIG. 2. How it is done:
A549 cells (human lung cancer) were seeded in six-well plates, and after 24 h (70% confluence) treated with 25 ug/ml cycloheximide (CHX) and either 100 U/ml human TNF (Beoringer) or an agonist monoclonal antibody to FAS (Panerva) in concentration 200 ng/ml. GMDP, and GMHP were added just prior to the cytokine in the concentrations discussed in the figure legends. Twenty hours after the treatment 20 ul of the cultured supernatant was removed and tested for the LDH activity in 96 well plates in triplicate. Samples were assayed on an EL340 Microplate reader (Biotec Instruments, Inc) at 490-nm wavelength.
The purpose of this experiment was to show the synergistic effect of NAG and D-glutamine on LDH release. Technically the experiment was similar to example 1. Both ingredients were added in concentration 1 ug/ml. […] Almost 50% inhibition of LDH activity was noticed for NAG+D-glutamine composition. […] The glucosamine muramyl hexapeptide has 3 D-amino acids while GMDP has only one D-isoglutamine.
For orientation: Release of lactate dehydrogenase indicates damage to the cell membrane.

The source of these data is US7112564B2, “Biodegradable glucosaminemuramyl peptides for apoptosis modulation” (Zylacta Corporation, priority 2003, dated 2006).

As for `NC(=O)CC[C@H](N)C(=O)O` [L-glutamine], the “protection of cells from TNF alpha cytotoxicity (LDH release)” value was “does not protect cells from TNF alpha cytotoxicity”.
